Results reported in patent publication US5153352A, “Process for preparation of intermediates of carbocyclic nucleoside analogs” (priority 1990, dated 1992).
Values after ≈ are worked out from the molar mass of the structure shown.

Tests used:
[1] = system: duck hepatitis B virus (DHBV); assay: efficacy against hepatitis B virus in vivo in ducklings; design: species or system Peking duckling infected with duck hepatitis B virus
Protocol: The test method is an adaptation of the method of Smee, et al., Antimicrob. Agents Chemotherap. 27 277 (1985). The serum level of duck hepatitis B virus (DHBV) DNA was monitored in 6 infected Peking ducklings from age 6 days to age 27 days. Four ducklings were treated with 70 mg/kg/day IP, b.i.d. of the test compound as a 3 mg/ml solution in 0.9% aqueous NaCl on days 10-17. Two control ducklings were treated with 23 ml/kg/day IP, b.i.d. of 0.9% aqueous NaCl on days 10-17. The level of DHBV DNA in the duckling serum was measured daily.

Varicella-Zoster Virus = assay: microbe, parasite or virus in culture; type: cell-based, Varicella-Zoster virus (clinical isolate DM625); conditions: Human alphaherpesvirus 3, Fibroblast, 120 h
[2] = system: Human Immunodeficiency Virus (HIV); assay: HIV CPE inhibition assay in ATH8 cells; type: cell-based; design: ID50: unit not given beside the values
Protocol: The ATH8 human T-cell line expresses high levels of the CD4 surface antigen and is quite sensitive to the cytopathogenic effect (CPE) of HIV. The cells were propagated in RPMI 1640 medium supplemented with 4mM glutamine, 15% heat-inactivated fetal bovine serum (Biocell), antibiotics (50 units of penicillin and […] of streptomycin per ml), and 50 units of recombinant-derived human interleukin-2 (ala-125; AMGen Biologicals) per ml.
The clone H9 cell line is another CD4^+ human T-cell line which is permissive for HIV replication but largely resistant to virus induced CPE. H9 cells productively infected with the HTLV IIIB strain of HIV served as the source of infectious virus. These cells were propagated in RPMI 1640 medium supplemented with glutamine and antibiotics as described above, and with 20% heat-inactivated fetal bovine serum. Freshly harvested, undiluted culture supernatant from the H9/HTLV-IIIB producer cells was used for infectious virus inoculum.
The screening of compounds for antiviral activity was performed using a modification of the CPE inhibition assay originally developed by Broder and co workers. This assay is based on the ability of uninfected ATH8 cells to grow and form a pellet at the bottom of a culture tube. Starting about 4 days after HIV addition, infected ATH8 cells begin to die and the pellet starts to break up. By day 10 a clear differential is observable in the size of the cell pellet in uninfected control wells versus infected control wells. The protective effect of test compounds can be assessed by adding them at varying concentrations to the cultured cells at the time of virus infection, then monitoring the status of the cell pellet.
ATH8 cells were used as the primary target in the HIV induced CPE inhibition assay. Cells were treated with polybrene (2 ug/ml in growth medium) for 30 minutes at 37° C., then collected by gentle centrifugation (40×g for 15 minutes at room temperature) and resuspended in clarified (8000×g for 15 minutes at 4° C.) supernate freshly harvested from 48 hours post passage H9/HTL IIIB cells. Following a 60-minute adsorption period at 37° C., the cells were dispensed into the U-bottom wells of 96-well trays (1×10^4 cells in 0.1 ml per well). An equal volume (0.1 ml) of supplemented RPMI 1640 medium containing test compound and twice the normal concentration of interleukin-2 was then added to each well. Test compounds were evaluated at seven half-log dilutions ranging from 100 uq/ml to 0.1 uq/ml. […]
Between 7 and 10 days post infection, all wells were visually monitored for the degree of CPE inhibition as reflected by cell pellet size, and aliquots were taken from selected wells for determination of cell number and viability (based on trypan blue dye exclusion).

Nc1nc2c(ncn2C2CC(CO)C2CO)c(=O)[nH]1 (centres unmarked) [Example 1I, 9-(2',3'-Bis(hydroxymethyl)cyclobutyl)guanine]
Serum DHBV DNA ([1]; duck 1, age 6 days, before treatment): 187 ng/mL
Serum DHBV DNA ([1]; duck 1, age 7 days, before treatment): 156 ng/mL
Serum DHBV DNA ([1]; duck 1, age 8 days, before treatment): 168 ng/mL
Serum DHBV DNA ([1]; duck 1, age 9 days, before treatment): 233 ng/mL
Serum DHBV DNA ([1]; duck 1, age 10 days, 70 mg/kg/day IP days 10-17): 213 ng/mL
Serum DHBV DNA ([1]; duck 1, age 11 days, 70 mg/kg/day IP days 10-17): 155 ng/mL
Serum DHBV DNA ([1]; duck 1, age 12 days, 70 mg/kg/day IP days 10-17): 64 ng/mL
Serum DHBV DNA ([1]; duck 1, age 13 days, 70 mg/kg/day IP days 10-17): 11 ng/mL
Serum DHBV DNA ([1]; duck 1, age 14 days, 70 mg/kg/day IP days 10-17): 6 ng/mL
Serum DHBV DNA ([1]; duck 1, age 15 days, 70 mg/kg/day IP days 10-17): < 1 ng/mL
Serum DHBV DNA ([1]; duck 1, age 16 days, 70 mg/kg/day IP days 10-17): < 1 ng/mL
Serum DHBV DNA ([1]; duck 1, age 17 days, 70 mg/kg/day IP days 10-17): < 1 ng/mL
Serum DHBV DNA ([1]; duck 1, age 18 days, 70 mg/kg/day IP days 10-17): < 1 ng/mL
Serum DHBV DNA ([1]; duck 1, age 19 days, 70 mg/kg/day IP days 10-17): < 1 ng/mL
Serum DHBV DNA ([1]; duck 1, age 20 days, 70 mg/kg/day IP days 10-17): < 1 ng/mL
Serum DHBV DNA ([1]; duck 1, age 21 days, 70 mg/kg/day IP days 10-17): < 1 ng/mL
Serum DHBV DNA ([1]; duck 1, age 22 days, 70 mg/kg/day IP days 10-17): 3 ng/mL
Serum DHBV DNA ([1]; duck 1, age 23 days, 70 mg/kg/day IP days 10-17): 12 ng/mL
Serum DHBV DNA ([1]; duck 1, age 24 days, 70 mg/kg/day IP days 10-17): 16 ng/mL
Serum DHBV DNA ([1]; duck 1, age 25 days, 70 mg/kg/day IP days 10-17): 31 ng/mL
Serum DHBV DNA ([1]; duck 1, age 26 days, 70 mg/kg/day IP days 10-17): 71 ng/mL
Serum DHBV DNA ([1]; duck 1, age 27 days, 70 mg/kg/day IP days 10-17): 134 ng/mL
Serum DHBV DNA ([1]; duck 2, age 6 days, before treatment): 143 ng/mL
Serum DHBV DNA ([1]; duck 2, age 7 days, before treatment): 111 ng/mL
Serum DHBV DNA ([1]; duck 2, age 8 days, before treatment): 121 ng/mL
Serum DHBV DNA ([1]; duck 2, age 9 days, before treatment): 102 ng/mL
Serum DHBV DNA ([1]; duck 2, age 10 days, 70 mg/kg/day IP days 10-17): 120 ng/mL
Serum DHBV DNA ([1]; duck 2, age 11 days, 70 mg/kg/day IP days 10-17): 61 ng/mL
Serum DHBV DNA ([1]; duck 2, age 12 days, 70 mg/kg/day IP days 10-17): 27 ng/mL
Serum DHBV DNA ([1]; duck 2, age 13 days, 70 mg/kg/day IP days 10-17): 2 ng/mL
Serum DHBV DNA ([1]; duck 2, age 14 days, 70 mg/kg/day IP days 10-17): 1 ng/mL
Serum DHBV DNA ([1]; duck 2, age 15 days, 70 mg/kg/day IP days 10-17): < 1 ng/mL
Serum DHBV DNA ([1]; duck 2, age 16 days, 70 mg/kg/day IP days 10-17): < 1 ng/mL
Serum DHBV DNA ([1]; duck 2, age 17 days, 70 mg/kg/day IP days 10-17): < 1 ng/mL
Serum DHBV DNA ([1]; duck 2, age 18 days, 70 mg/kg/day IP days 10-17): < 1 ng/mL
Serum DHBV DNA ([1]; duck 2, age 19 days, 70 mg/kg/day IP days 10-17): < 1 ng/mL
Serum DHBV DNA ([1]; duck 2, age 20 days, 70 mg/kg/day IP days 10-17): < 1 ng/mL
Serum DHBV DNA ([1]; duck 2, age 21 days, 70 mg/kg/day IP days 10-17): < 1 ng/mL
Serum DHBV DNA ([1]; duck 2, age 22 days, 70 mg/kg/day IP days 10-17): < 1 ng/mL
Serum DHBV DNA ([1]; duck 2, age 23 days, 70 mg/kg/day IP days 10-17): < 1 ng/mL
Serum DHBV DNA ([1]; duck 2, age 24 days, 70 mg/kg/day IP days 10-17): < 1 ng/mL
Serum DHBV DNA ([1]; duck 2, age 25 days, 70 mg/kg/day IP days 10-17): 2 ng/mL
Serum DHBV DNA ([1]; duck 2, age 26 days, 70 mg/kg/day IP days 10-17): 2 ng/mL
Serum DHBV DNA ([1]; duck 2, age 27 days, 70 mg/kg/day IP days 10-17): 7 ng/mL
Serum DHBV DNA ([1]; duck 3, age 6 days, before treatment): 520 ng/mL
Serum DHBV DNA ([1]; duck 3, age 7 days, before treatment): 311 ng/mL
Serum DHBV DNA ([1]; duck 3, age 8 days, before treatment): 277 ng/mL
Serum DHBV DNA ([1]; duck 3, age 9 days, before treatment): 412 ng/mL
Serum DHBV DNA ([1]; duck 3, age 10 days, 70 mg/kg/day IP days 10-17): 377 ng/mL
Serum DHBV DNA ([1]; duck 3, age 11 days, 70 mg/kg/day IP days 10-17): 130 ng/mL
Serum DHBV DNA ([1]; duck 3, age 12 days, 70 mg/kg/day IP days 10-17): 77 ng/mL
Serum DHBV DNA ([1]; duck 3, age 13 days, 70 mg/kg/day IP days 10-17): 16 ng/mL
Serum DHBV DNA ([1]; duck 3, age 14 days, 70 mg/kg/day IP days 10-17): 2 ng/mL
Serum DHBV DNA ([1]; duck 3, age 15 days, 70 mg/kg/day IP days 10-17): 2 ng/mL
Serum DHBV DNA ([1]; duck 3, age 16 days, 70 mg/kg/day IP days 10-17): < 1 ng/mL
Serum DHBV DNA ([1]; duck 3, age 17 days, 70 mg/kg/day IP days 10-17): < 1 ng/mL
Serum DHBV DNA ([1]; duck 3, age 18 days, 70 mg/kg/day IP days 10-17): < 1 ng/mL
Serum DHBV DNA ([1]; duck 4, age 6 days, before treatment): 288 ng/mL
Serum DHBV DNA ([1]; duck 4, age 7 days, before treatment): 215 ng/mL
Serum DHBV DNA ([1]; duck 4, age 8 days, before treatment): 256 ng/mL
Serum DHBV DNA ([1]; duck 4, age 9 days, before treatment): 311 ng/mL
Serum DHBV DNA ([1]; duck 4, age 10 days, 70 mg/kg/day IP days 10-17): 333 ng/mL
Serum DHBV DNA ([1]; duck 4, age 11 days, 70 mg/kg/day IP days 10-17): 132 ng/mL
Serum DHBV DNA ([1]; duck 4, age 12 days, 70 mg/kg/day IP days 10-17): 21 ng/mL
Serum DHBV DNA ([1]; duck 4, age 13 days, 70 mg/kg/day IP days 10-17): 2 ng/mL
Serum DHBV DNA ([1]; duck 4, age 14 days, 70 mg/kg/day IP days 10-17): 1 ng/mL
Serum DHBV DNA ([1]; duck 4, age 15 days, 70 mg/kg/day IP days 10-17): 1 ng/mL
Serum DHBV DNA ([1]; duck 4, age 16 days, 70 mg/kg/day IP days 10-17): 1 ng/mL
Serum DHBV DNA ([1]; duck 4, age 17 days, 70 mg/kg/day IP days 10-17): < 1 ng/mL
Serum DHBV DNA ([1]; duck 4, age 18 days, 70 mg/kg/day IP days 10-17): < 1 ng/mL
Serum DHBV DNA ([1]; duck 4, age 19 days, 70 mg/kg/day IP days 10-17): < 1 ng/mL
Serum DHBV DNA ([1]; duck 4, age 20 days, 70 mg/kg/day IP days 10-17): < 1 ng/mL
Serum DHBV DNA ([1]; duck 4, age 21 days, 70 mg/kg/day IP days 10-17): < 1 ng/mL
Serum DHBV DNA ([1]; duck 4, age 22 days, 70 mg/kg/day IP days 10-17): < 1 ng/mL
Serum DHBV DNA ([1]; duck 4, age 23 days, 70 mg/kg/day IP days 10-17): < 1 ng/mL
Serum DHBV DNA ([1]; duck 4, age 24 days, 70 mg/kg/day IP days 10-17): < 1 ng/mL
Serum DHBV DNA ([1]; duck 4, age 25 days, 70 mg/kg/day IP days 10-17): < 1 ng/mL
death of treated ducks ([1]; ducks 3 and 4, 70 mg/kg/day IP b.i.d. days 10-17): ducks 3 and 4 died on day 18 and day 26, respectively
EC50 (Varicella-Zoster Virus; VZV plaque formation, human foreskin fibroblasts, read-out: MIC50): 1.4 µg/mL (≈ 5.28 µM)
inhibition at 0.1 µg/mL (Varicella-Zoster Virus; VZV, 0.1 ug/ml, read-out: Plaque Reduction): 11.5%
inhibition at 0.32 µg/mL (Varicella-Zoster Virus; VZV, 0.32 ug/ml, read-out: Plaque Reduction): 18%
inhibition at 1 µg/mL (Varicella-Zoster Virus; VZV, 1.0 ug/ml, read-out: Plaque Reduction): 47.1%
inhibition at 3.2 µg/mL (Varicella-Zoster Virus; VZV, 3.2 ug/ml, read-out: Plaque Reduction): 97.7%
inhibition at 10 µg/mL (Varicella-Zoster Virus; VZV, 10 ug/ml, read-out: Plaque Reduction): 100%
inhibition at 32 µg/mL (Varicella-Zoster Virus; VZV, 32 ug/ml, read-out: Plaque Reduction): 100%
inhibition at 100 µg/mL (Varicella-Zoster Virus; read-out: Plaque Reduction): 100%

Nc1ncnc2c1ncn2C1CC(CO)C1CO (centres unmarked) [Example 4C, 9-(2',3'-Bis(hydroxymethyl)cyclobutyl)adenine]
ID50 [2]: < 0.1
TI [2]: 32
VR [2]: 3.5
